This assay is described as follows: blockers of mitochondrial fusion, WT vs mutant – cell-based, chemical genetic, wild-type and mutant, confirmation (AID 1361). The settings on record: Cell-based mitochondrial fusion phenotype, imaging.
Setting [1] is: mutant cells, measured here: mutant cell line IC50.

Molecules are shown by their SMILES. pIC50: −log10 of the molar value. Calls of active or inactive are those of the source. The rule behind the calls is not given here. A value given as a limit tells only on which side of the number the result lay.

A word on the pIC50: it is the negative decadic logarithm of the IC50, by convention in mol/L. Turning to `CCOC(=O)C1=C(CC)Nc2ccccc2N/C1=N\S(=O)(=O)c1ccc2ccccc2c1`, the negative-log IC50 (pIC50) is, setting by setting: (WT cells) 4.96; under setting [1], less than 4.60.

`CC(C)(O)[C@H]1O[C@H]2CC[C@@]3(C)[C@@](O)(CC[C@H]4Cc5c([nH]c6ccccc56)[C@@]43C)C2=CC1=O`: the negative logarithm of the IC50 (pIC50) reads like this: (WT cells) 4.95; under setting [1], less than 4.60.

As a reminder, the IC50 is the concentration at which inhibition is half-maximal. In the case of `Oc1ccc2ccccc2c1/C=N/c1nc2c(s1)CCCC2`, the IC50 (WT cells) is > 25 µM (inactive). This compound also showed a negative-log IC50 (pIC50) under setting [1] of less than 4.60.

For the compound `CC(=O)c1ccc(-n2nnnc2SCC(=O)Nc2cccc(NC(=O)c3ccco3)c2)cc1`, the IC50 (WT cells) is > 25 µM (inactive). Further, the negative-log IC50 (pIC50) under setting [1] was less than 4.60.

Take `O=C(NCc1ccccc1)c1ccc(-c2ccccc2C(F)(F)F)o1`: under “WT cells”, the IC50 was > 25 µM (inactive). Under setting [1], this compound had a pIC50 of less than 4.60.

As for `CC1CC(C)CN(C(=O)c2cc3cc(Br)cc(Br)c3o2)C1` (stereo not drawn), the negative-log IC50 (pIC50) runs as follows: (WT cells) 4.86; under setting [1], 4.65.

As to `CSc1ccc(Cl)c(C(=O)NCCOc2cc(C)ccc2C(C)C)c1`, the negative logarithm of the IC50 (pIC50) reads like this: (WT cells) 4.89; under setting [1], less than 4.60.

For `N#CC(C#N)=C1C=CC=CN1/C(=C\c1ccccc1Cl)C(=O)c1ccccc1`, the pIC50 reads like this: (WT cells) 4.73; under setting [1], less than 4.60.

On to `CCOC(=O)C1=C(Nc2ccccc2)CC(C)(O)C(C(=O)OCC)C1c1ccc(Cl)cc1` (stereo not drawn), for which the pIC50 reads like this: (WT cells) 4.81; under setting [1], less than 4.60.

`COc1cc(/C=N/N=C(/C(=O)c2ccccc2)c2ccccc2)cc(OC)c1O`: the pIC50 runs as follows: (WT cells) 4.78; under setting [1], less than 4.60.

For the compound `Cn1c(CN2CCCCC2)nc2cc(NC(=O)c3ccc(Cl)cc3)ccc21`, the IC50 (WT cells) is > 25 µM (inactive). In addition, the pIC50 under setting [1] is less than 4.60.

On to `O=C(Cc1c(O)c2ccccc2[nH]c1=O)NCc1ccccc1F`, for which the IC50 (WT cells) is > 25 µM (inactive). Besides, the negative-log IC50 (pIC50) under setting [1] is less than 4.60.

For the compound `CN1/C(=C\C(=O)Nc2ccc(Br)cc2)C(C)(C)c2ccccc21`, the pIC50 is 5.25 (WT cells) and 4.78 under setting [1].

As to `CCOc1ccc(NS(=O)(=O)c2cnc(Cl)c(Cl)c2)cc1`, the pIC50 reads like this: (WT cells) 4.69; under setting [1], less than 4.60.

`N#Cc1sc2nc(C3CC3)cc(-c3ccc(Cl)cc3)c2c1N`: the pIC50 (WT cells) is 4.93 and the negative logarithm of the IC50 (pIC50) under setting [1] is 4.71.

On to `FC(F)(F)c1cnc(N2CCC(=NOCc3ccc(Cl)cc3)CC2)c(Cl)c1`, for which the negative-log IC50 (pIC50) runs as follows: (WT cells) 4.86; under setting [1], less than 4.60.

As to `CC(C)N1C(=O)/C(=C\c2nc3ccccc3c(=O)n2-c2ccccc2)c2ccccc21`, the pIC50 was 4.73 (WT cells) and less than 4.60 under setting [1].

For the compound `O=C1COc2ccc(NC(=O)N3CCN(c4ccc(F)cc4)CC3)cc2N1`, under “WT cells”, the IC50 is > 25 µM (inactive). In addition, the pIC50 under setting [1] is less than 4.60.

`COCCNC(=S)N(CCc1c(C)[nH]c2ccc(Cl)cc12)Cc1cccs1`: the pIC50 was 5.06 (WT cells) and less than 4.60 under setting [1].

With `CCOC(=O)c1ccc2c(c1)n(CC)c(/C=C/N(C)c1ccccc1)[n+]2CC`, the IC50 (WT cells) was > 25 µM (inactive). The compound further showed a pIC50 under setting [1] of less than 4.60.

Regarding `CCc1ccc(-c2nn(-c3ccccc3)cc2CSC(=N)N)cc1`, the IC50 (WT cells) was > 25 µM (inactive). Under setting [1], the pIC50 was less than 4.60.

In the case of `S=C(Nc1ccc(Oc2ccccc2)cc1)NC1CCCCCC1`, the negative logarithm of the IC50 (pIC50) runs as follows: (WT cells) 5.28; under setting [1], 5.00.

As to `CCN(c1ccccc1)S(=O)(=O)c1cnc[nH]1`, for the setting “WT cells”, the IC50 was > 25 µM (inactive). The pIC50 under setting [1] is less than 4.60.

As for `S=C(NCCNCc1ccccc1)NC1CCCCC1`, the pIC50 is 4.87 (WT cells) and less than 4.60 under setting [1].

Take `O=C(CN1C(=O)COc2ccccc21)N(Cc1cccnc1)Cc1cccc(F)c1`: for the setting “WT cells”, the IC50 was > 25 µM (inactive). Moreover, under setting [1], the negative-log IC50 (pIC50) was less than 4.60.

Consider `CCN(c1ccc2c(c1)OCO2)S(=O)(=O)c1cc(Br)cc2c1N(C(=O)C1CC1)CC2`, for which the pIC50 is 4.88 (WT cells) and less than 4.60 under setting [1].

Consider `c1ccc(CNc2nc(-c3cccs3)nc3ccccc23)cc1`, for which, where the note is “WT cells”, the IC50 is > 25 µM (inactive). The negative logarithm of the IC50 (pIC50) under setting [1] was less than 4.60.

Turning to `CC(C)(C)n1nnnc1C(c1cccs1)N1CCCC2(CCCCC2)C1` (stereo not drawn), the negative-log IC50 (pIC50) is 5.31 (WT cells) and less than 4.60 under setting [1].

In the case of `COc1ccc(CNC(=O)C2CC(=O)N(c3ccc(OCC(=O)N4C(C)CCCC4C)cc3)C2)cc1` (stereo not drawn), the IC50 (WT cells) was > 25 µM (inactive). The pIC50 under setting [1] is less than 4.60.

With `O=C(c1ccco1)N1CCN(C(=O)C2c3ccccc3Oc3ccccc32)CC1`, the IC50 (WT cells) is > 25 µM (inactive). Further, the pIC50 under setting [1] is less than 4.60.

Consider `CS(=O)(=O)N(Cc1cc2ccccc2[nH]c1=O)C1CCCCC1`, for which the IC50 (WT cells) is > 25 µM (inactive). Further, the negative-log IC50 (pIC50) under setting [1] was less than 4.60.

Consider `Cc1ccc(NC(=S)N(Cc2cccc(Br)c2)CC2CCC(C(=O)O)CC2)cc1Cl` (stereo not drawn), for which the pIC50 (WT cells) is 4.66 and the negative-log IC50 (pIC50) under setting [1] was less than 4.60.

Turning to `O=C(Nc1ccc(C(O)(C(F)(F)F)C(F)(F)F)cc1)c1ccc(Cl)c([N+](=O)[O-])c1`, the pIC50 is 4.73 (WT cells) and less than 4.60 under setting [1].

In the case of `CCSc1ccc2cc(OC)ccc2[n+]1CC`, the pIC50 was 4.64 (WT cells) and less than 4.60 under setting [1].

Turning to `O=C(NCC1(c2ccccc2)CCCC1)C1(c2ccccc2)CCCC1`, the negative-log IC50 (pIC50) reads like this: (WT cells) 4.77; under setting [1], less than 4.60.

Regarding `Cc1[nH][nH]c(=O)c1C(c1c(C)[nH][nH]c1=O)c1cn(Cc2ccccc2Cl)c2ccccc12`, for the setting “WT cells”, the IC50 is > 25 µM (inactive). The same compound gave a pIC50 under setting [1] of less than 4.60.

As to `O=C(COC(=O)c1ccccc1Cc1ccccc1)Nc1ccc(SC(F)F)cc1`, the pIC50 reads like this: (WT cells) 5.23; under setting [1], less than 4.60.

`O=C(OCc1nnc(-c2ccccc2)o1)C12CC3CC(CC(Br)(C3)C1)C2`: the pIC50 (WT cells) is 4.62 and the negative logarithm of the IC50 (pIC50) under setting [1] was less than 4.60.

In the case of `COc1ccccc1CNC(=O)c1ccccc1OCc1ccc(F)cc1`, the negative logarithm of the IC50 (pIC50) was 4.66 (WT cells) and less than 4.60 under setting [1].

On to `Fc1ccccc1Nc1nc2c(s1)CCc1ccccc1-2`, for which the negative logarithm of the IC50 (pIC50) is, setting by setting: (WT cells) 4.75; under setting [1], 4.72.

As for `COc1ccc(-c2cc3nc(C)cc(N4CC(C)CC(C)C4)n3n2)cc1` (stereo not drawn), the pIC50 runs as follows: (WT cells) 4.75; under setting [1], 4.71.

As to `COc1ccc(S(=O)(=O)N2CCCCCC2)cc1C(=O)OCc1c(C)noc1C`, the IC50 (WT cells) was > 25 µM (inactive). The compound also showed a pIC50 under setting [1] of less than 4.60.

As to `CCC(C(=O)OCC(=O)Nc1ccccc1-c1ccccc1)c1ccccc1` (stereo not drawn), the negative-log IC50 (pIC50) (WT cells) is 4.76 and the negative logarithm of the IC50 (pIC50) under setting [1] is less than 4.60.

Turning to `Cn1c(Oc2ccc3c(c2)OCO3)nc2c1c(=O)n(Cc1ccccc1)c(=O)n2C`, the IC50 (WT cells) was > 25 µM (inactive). Moreover, the pIC50 under setting [1] was less than 4.60.

In the case of `CC(=O)Nc1ccc(S(=O)(=O)N2CCSC2c2ccc(Cl)cc2)cc1` (stereo not drawn), the IC50 (WT cells) was > 25 µM (inactive). Under setting [1], this compound gave a pIC50 of less than 4.60.

As to `O=C(CCc1ccccc1)NC(=S)Nc1cccc(Br)c1`, the pIC50 (WT cells) was 4.86 and the pIC50 under setting [1] was 4.67.

With `COc1ccccc1CN=Cc1[nH]c2ccc(Br)c(Cl)c2c1O`, under “WT cells”, the IC50 was > 25 µM (inactive). Under setting [1], this compound showed a pIC50 of less than 4.60.

Consider `Clc1ccc(-c2csc3ncnc(N4CCc5ccccc5C4)c23)cc1`, for which the pIC50 (WT cells) was 5.00 and the pIC50 under setting [1] is less than 4.60.

On to `CCOC(=O)c1c(C)n(C)c2cc(Br)c(C(=O)OC)cc12`, for which the IC50 (WT cells) is > 25 µM (inactive). This compound had a pIC50 under setting [1] of less than 4.60.
